For the first experiment, the system named is OGD-injuried neurons (primary cortical neurons). The experiment can be described thus: Cell viability assay: LDH release by OGD-injured primary cortical neurons. To be noted: Mus musculus, Primary cortical neuron; drug concentration 10^−6 M/L; OGD 2 hours, LDH after 8 hours. The format is cell-based, mice. On the procedure:
After primary neurons were cultured for 9 days, the medium was replaced by DMEM high glucose medium containing 1% FBS, serum-starved overnight and then washed twice with OGD culture solution. This OGD culture solution contains DMEM medium, 1% FBS, 1% penicillin/streptomycin and B27, and contains no sugar. Then, the primary neurons were incubated with the test drugs for 30 minutes, OGD culture solution was added into an anaerobic tank and oxygen-deprived for 2 hours. The OGD culture solution was discarded, and replaced by oxygen-saturated DMEM medium containing 1% FBS, 1% penicillin/streptomycin and B27. After 8 hours the culture solution was collected to measure LDH level.
After the primary cortical neurons were treated with various processes, neuronal culture solution in six-well plates was pipetted to a 1.5 mL plastic centrifuge tube; cells were washed three times with PBS solution and each well was added PBS 1000 μl. The cells were freezed and thawed repeated for three times, centrifuged at 12000′ g for 5 minutes at 4° C., and the supernatant was removed for use. The activity of LDH enzyme was determined with 50 μl culture solution and 25 μl supernatant using lactate dehydrogenase kit.
Protective Effects of the Objective Compounds Against Primary Cortical Neuronal Injury Cultured In Vitro (See Table 2)
Compound `CC1(C)C2CCC1(C)C(OC(=O)c1ccc(NCc3cc(Cl)cc(Cl)c3O)c(Cl)c1O)C2` (centres unmarked) [ZL006-17, bornyl-2-hydroxy-3-chloro-4-(2-hydroxy-3,5-dichlorobenzyl)aminobenzoate] returned an inhibition at 1 µM of 48.2%.

Compound `CC1(C)C2CCC1(C)C(OC(=O)c1cc(NCc3cc(F)cc(Cl)c3O)ccc1O)C2` (centres unmarked) [ZL006-56, bornyl-2-hydroxy-5-(2-hydroxy-3-chloro-5-fluorobenzyl)aminobenzoate] registered an inhibition at 1 µM of 50%.

Consider `COc1c(Cl)cc(C(F)(F)F)cc1CNc1ccc(C(=O)OC2CC3CCC2(C)C3(C)C)c(O)c1` (centres unmarked) [ZL006-79, bornyl-2-hydroxy-4-(2-methoxy-3-chloro-5-trifluoromethylbenzyl)aminobenzoate], for which the inhibition at 1 µM came to 58.3%.

Compound `CC(=O)Oc1c(C(=O)OC2CC3CCC2(C)C3(C)C)ccc(NCc2cc(Cl)cc(Cl)c2O)c1Cl` (centres unmarked) [ZL006-19, bornyl-2-acetyloxy-3-chloro-4-(2-hydroxy-3,5-dichlorobenzyl)aminobenzoate] gave an inhibition at 1 µM of 23.9%.

For `CCCC(=O)Oc1cc(NCc2cc(Br)cc(Cl)c2O)ccc1C(=O)OC1CC2CCC1(C)C2(C)C` (centres unmarked) [ZL006-44, bornyl-2-butyryloxy-4-(2-hydroxy-3-chloro-5-bromobenzyl)aminobenzoate], the inhibition at 1 µM worked out at 43.5%.

With `CC1(C)C2CCC1(C)C(OC(=O)c1cc(NCc3cc(C(F)(F)F)cc(Cl)c3O)ccc1O)C2` (centres unmarked) [ZL006-48, bornyl-2-hydroxy-5-(2-hydroxy-3-chloro-5-trifluoromethylbenzyl)aminobenzoate], testing at 1 µM gave an inhibition of 21.1%.

The compound `CC(=O)Oc1cc(NCc2cc(C(F)(F)F)ccc2O)ccc1C(=O)OC1CC2CCC1(C)C2(C)C` (centres unmarked) [ZL006-74, bornyl-2-acetyloxy-4-(2-hydroxy-5-trifluoromethylbenzyl)aminobenzoate] came in with an inhibition at 1 µM of 24.7%.

Still in this experiment, the particulars now being: drug concentration 10^−6 M/L; OGD 2 hours, LDH after 8 hours.
For `CC(=O)N(Cc1cc(F)cc(Cl)c1O)c1ccc(C(=O)OC2CC3CCC2(C)C3(C)C)c(O)c1` (centres unmarked) [ZL006-62, bornyl-2-hydroxy-4-[N-(2-hydroxy-3-chloro-5-fluorobenzyl)-N-acetyl]aminobenzoate], the “Inhibition of LDH release (%)” value is listed as 50.1%.

As for `COc1cc(NCc2cc(C(F)(F)F)ccc2O)ccc1C(=O)OC1CC2CCC1(C)C2(C)C` (centres unmarked) [ZL006-73, bornyl-2-methoxy-4-(2-hydroxy-5-trifluoromethylbenzyl) aminobenzoate], the “Inhibition of LDH release (%)” value came out at 25.3%.

In the case of “bornyl-2-(2-ethoxy-2-carbonylethoxy)-4-[N-(2-hydroxy-3,5-dichlorobenzyl)-N-(2-ethoxy-2-carbonylethyl)]aminobenzoate [ZL006-36]”, the “Inhibition of LDH release (%)” value is reported as 10.4%.

Consider “methyl 2-acetyloxy-4-[N-(2-hydroxy-3,5-dichlorobenzyl)-N-(bornyl-2-carbonylethyl)]aminobenzoate [ZL006-38]”, for which the “Inhibition of LDH release (%)” value is 41.3%.

For the compound `COc1cc(NCc2cc(Cl)cc(Cl)c2O)c(Cl)cc1C(=O)OC1CC2CCC1(C)C2(C)C` (centres unmarked) [ZL006-25, bornyl-2-methoxy-4-(2-hydroxy-3,5-dichlorobenzyl) amino-5-chlorobenzoate], the “Inhibition of LDH release (%)” value came to 30.6%.

Take “bornyl-2-(bornyl-2-carbonylethoxy)-4-[N-(2-hydroxy-3,5-dichlorobenzyl)-N-(bornyl-2-carbonylethyl)]aminobenzoate [ZL006-37]”: the “Inhibition of LDH release (%)” value is given as 40.2%.

Take `CCCCOc1cc(NCc2cc(Br)cc(Cl)c2O)ccc1C(=O)OC1CC2CCC1(C)C2(C)C` (centres unmarked) [ZL006-42, bornyl-2-n-butoxy-4-(2-hydroxy-3-chloro-5-bromobenzyl) aminobenzoate]: the “Inhibition of LDH release (%)” value was 37.7%.

Take `CC1(C)C2CCC1(C)C(OC(=O)c1cc(NCc3cc(Br)ccc3O)ccc1O)C2` (centres unmarked) [ZL006-04, bornyl-2-hydroxy-5-(2-hydroxy-5-bromobenzyl) aminobenzoate]: the “Inhibition of LDH release (%)” value is given as 26.9%.

For `CC1(C)C2CCC1(C)C(OC(=O)c1ccc(NCc3cc(F)cc(Cl)c3O)cc1O)C2` (centres unmarked) [ZL006-08, bornyl-2-hydroxy-4-(2-hydroxy-3-chloro-5-fluorobenzyl) aminobenzoate], the “Inhibition of LDH release (%)” value amounted to 50.4%.

Regarding `CC(=O)Oc1cc(NCc2cc(Cl)ccc2O)ccc1C(=O)OC1CC2CCC1(C)C2(C)C` (centres unmarked) [ZL006-68, bornyl-2-acetyloxy-4-(2-hydroxy-5-chlorobenzyl) aminobenzoate], the “Inhibition of LDH release (%)” value was 1.2%.

As for `COc1c(Cl)cc(Cl)cc1CNc1ccc(C(=O)OC2CC3CCC2(C)C3(C)C)c(O)c1` (centres unmarked) [ZL006-75, bornyl-2-hydroxy-4-(2-methoxy-3,5-dichlorobenzyl) aminobenzoate], the “Inhibition of LDH release (%)” value amounted to 31.3%.

Regarding `COc1cc(NCc2cc(Br)ccc2O)ccc1C(=O)OC1CC2CCC1(C)C2(C)C` (centres unmarked) [ZL006-64, bornyl-2-methoxy-4-(2-hydroxy-5-bromobenzyl) aminobenzoate], the “Inhibition of LDH release (%)” value worked out at 25.4%.

As for `CC(=O)Oc1cc(NCc2cc(F)cc(Cl)c2O)ccc1C(=O)OC1CC2CCC1(C)C2(C)C` (centres unmarked) [ZL006-07, bornyl-2-acetyloxy-4-(2-hydroxy-3-chloro-5-fluorobenzyl) aminobenzoate], the “Inhibition of LDH release (%)” value is reported as 20.7%.

Take `CC(=O)Oc1ccc(NCc2cc(Cl)cc(Cl)c2O)cc1C(=O)OC1CC2CCC1(C)C2(C)C` (centres unmarked) [ZL006-02, bornyl-2-acetyloxy-5-(2-hydroxy-3,5-dichlorobenzyl) aminobenzoate]: the “Inhibition of LDH release (%)” value is listed as 21.4%.

As for `COc1cc(NCc2cc(F)ccc2O)ccc1C(=O)OC1CC2CCC1(C)C2(C)C` (centres unmarked) [ZL006-70, bornyl-2-methoxy-4-(2-hydroxy-5-fluorobenzyl) aminobenzoate], the “Inhibition of LDH release (%)” value is 2.4%.

`CC(=O)Oc1cc(NCc2cc(Br)ccc2O)ccc1C(=O)OC1CC2CCC1(C)C2(C)C` (centres unmarked) [ZL006-65, bornyl-2-acetyloxy-4-(2-hydroxy-5-bromobenzyl) aminobenzoate]: the “Inhibition of LDH release (%)” value worked out at 38.2%.

Consider `CN(Cc1cc(C(F)(F)F)cc(Cl)c1O)c1ccc(C(=O)OC2CC3CCC2(C)C3(C)C)c(O)c1` (centres unmarked) [ZL006-53, bornyl-2-hydroxy-4-[N-(2-hydroxy-3-chloro-5-trifluoromethylbenzyl)-N-methyl]aminobenzoate], for which the “Inhibition of LDH release (%)” value stood at 61.1%.

In the case of `CCCCCC(=O)Oc1cc(NCc2cc(Cl)cc(Cl)c2O)ccc1C(=O)OC1CC2CCC1(C)C2(C)C` (centres unmarked) [ZL006-24, bornyl-2-hexanoyloxy-4-(2-hydroxy-3,5-dichlorobenzyl) aminobenzoate], the “Inhibition of LDH release (%)” value came out at 31.2%.

Turning to `CN(Cc1cc(Cl)cc(Cl)c1O)c1ccc(O)c(C(=O)O)c1` [ZL006-12, 2-hydroxy-5-[N-(2-hydroxy-3,5-dichlorobenzyl)-N-methyl]aminobenzoic acid], the “Inhibition of LDH release (%)” value is 15.1%.

For `CCCC(=O)Oc1cc(NCc2cc(Cl)cc(Cl)c2O)ccc1C(=O)OC1CC2CCC1(C)C2(C)C` (centres unmarked) [ZL006-23, bornyl-2-butyryloxy-4-(2-hydroxy-3,5-dichlorobenzyl) aminobenzoate], the “Inhibition of LDH release (%)” value came to 18.7%.

For `CC(Nc1ccc(C(=O)O)c(O)c1)c1cc(Cl)ccc1O` (centres unmarked) [ZL006-14, 2-hydroxy-4-[1-(2-hydroxy-5-chlorophenyl)]-ethylaminobenzoic acid], the “Inhibition of LDH release (%)” value is 19.9%.

Turning to `CC(=O)Oc1cc(N(Cc2cc(Cl)cc(Cl)c2O)C(C)=O)ccc1C(=O)O` [ZL006-10, 2-acetyloxy-4-[N-(2-hydroxy-3,5-dichlorobenzyl)-N-acetyl]aminobenzoic acid], the “Inhibition of LDH release (%)” value is 42.3%.
